Reference: patent US20260001847A1, “HERBICIDAL QUINOLONE DERIVATIVES” (SYNGENTA CROP PROTECTION AG, priority 2022, published 2026)

What was measured:
Type in all cases: in vivo
Details in all cases: 1000 g/ha, evaluated after 13 days
Zea mays (ZEAMX) [1] = experiment: Post-emergence Test
Description: (§1) Seeds of a variety of test species are sown in standard soil in pots (Abutilon theophrasti (ABUTH), Ipomoea hederacea (IPOHE). Setaria faberi (SETFA), Echinochloa crus-galli (ECHCG), Zea mays (ZEAMX), Amaranthus retoflexus (AMARE), Solanum nigrum (SOLNI), Lolium perenne (LOLPE), Amaranthus palmeri (AMAPA)). After 8 days cultivation under controlled conditions in a glasshouse (at 24° C./16° C., day/night-; 14 hours light; 65% humidity), the plants are sprayed with an aqueous spray solution derived from the formulation of the technical active ingredient in acetone/water (50:50) solution containing 0.5% Tween 20 (polyoxyethylene sorbitan monolaurate, CAS RN 9005-64-5). Compounds are applied at 1000 g/ha unless otherwise stated. The test plants are then grown in a glasshouse under controlled conditions in a glasshouse (at 24° C./16° C., day/night; 14 hours light; 65% humidity) and watered twice daily. After 13 days the test is evaluated for the percentage damage caused to the plant. The biological activities are shown in the following table on a five-point scale (5=81-100%; 4=61-80%; 3=41-60%; 2=21-40%; 1=0-20%; -=not tested).

[2] = test system: Echinochloa crus-galli (ECHCG); experiment: Post-emergence Test
Description: as §1

[3] = test system: Amaranthus palmeri (AMAPA); experiment: Post-emergence Test
Description: as §1

[4] = test system: Ipomoea hederacea (IPOHE); experiment: Post-emergence Test
Description: as §1

[5] = test system: Amaranthus retoflexus (AMARE); experiment: Post-emergence Test
Description: as §1

Setaria faberi (SETFA) [6] = experiment: Post-emergence Test
Description: as §1

Setaria faberi (SETFA) [7] = experiment: Pre-emergence Test
[8] = test system: Echinochloa crus-galli (ECHCG); experiment: Pre-emergence Test
Zea mays (ZEAMX) [9] = experiment: Pre-emergence Test
[10] = test system: Ipomoea hederacea (IPOHE); experiment: Pre-emergence Test

| SMILES | percentage damage caused to the plant, ZEAMX (Zea mays (ZEAMX) [1]) | percentage damage caused to the plant, ECHCG [2] | percentage damage caused to the plant, AMAPA [3] | percentage damage caused to the plant, IPOHE [4] | percentage damage caused to the plant, AMARE [5] | percentage damage caused to the plant, SETFA (Setaria faberi (SETFA) [6]) | percentage damage caused to the plant, SETFA (Setaria faberi (SETFA) [7]) | percentage damage caused to the plant, ECHCG [8] | percentage damage caused to the plant, ZEAMX (Zea mays (ZEAMX) [9]) | percentage damage caused to the plant, IPOHE [10] |
| --- | --- | --- | --- | --- | --- | --- | --- | --- | --- | --- |
| CCn1c(-c2ccc(Cl)c(Cl)c2)c(C(=O)O)c(=O)c2ccc(C(F)(F)F)cc21 [Compound 13, 2-(3,4-dichlorophenyl)-1-ethyl-4-oxo-7-(trifluoromethyl)quinoline-3-carboxylic acid] | 1 (1=0-20%) | 2 (2=21-40%) | 1 (1=0-20%) | 0 | 2 (2=21-40%) | 1 (1=0-20%) | 0 | 0 | 0 | 0 |
| CC(=O)c1cccc2c1c(=O)c(C(=O)O)cn2-c1ccc(OC(F)(F)F)cc1 [Compound 19, 5-acetyl-4-oxo-1-[4-(trifluoromethoxy)phenyl]quinoline-3-carboxylic acid] | 3 (3=41-60%) | 4 (4=61-80%) | 2 (2=21-40%) | 1 (1=0-20%) | 0 | 3 (3=41-60%) | 3 (3=41-60%) | 3 (3=41-60%) | 0 | 0 |
| CCn1c(-c2ccc(Cl)c(Cl)c2)c(C(=O)O)c(=O)c2cc(-c3ccc(F)cc3)ccc21 [Compound 9, 2-(3,4-dichlorophenyl)-1-ethyl-6-(4-fluorophenyl)-4-oxo-quinoline-3-carboxylic acid] | 0 | 0 | 2 (2=21-40%) | 2 (2=21-40%) | 2 (2=21-40%) | 0 | 4 (4=61-80%) | 3 (3=41-60%) | 1 (1=0-20%) | 1 (1=0-20%) |
| CCn1c(-c2ccc(Cl)c(Cl)c2)c(C(=O)O)c(=O)c2cc(C#N)ccc21 [Compound 7, 6-cyano-2-(3,4-dichlorophenyl)-1-ethyl-4-oxo-quinoline-3-carboxylic acid] | 3 (3=41-60%) | – | 4 (4=61-80%) | 2 (2=21-40%) | 3 (3=41-60%) | 4 (4=61-80%) | 5 (5=81-100%) | 5 (5=81-100%) | 3 (3=41-60%) | 1 (1=0-20%) |
| CCn1c(-c2ccc(Cl)c(Cl)c2)c(C(=O)O)c(=O)c2cc(C(N)=O)ccc21 [Compound 10, 6-carbamoyl-2-(3,4-dichlorophenyl)-1-ethyl-4-oxo-quinoline-3-carboxylic acid] | 2 (2=21-40%) | – | 4 (4=61-80%) | 1 (1=0-20%) | 2 (2=21-40%) | 4 (4=61-80%) | 0 | 0 | 2 (2=21-40%) | 0 |
| CCn1c(-c2ccc(Cl)c(Cl)c2)c(C(=O)O)c(=O)c2cc(Cl)ccc21 [Compound 5, 6-chloro-2-(3,4-dichlorophenyl)-1-ethyl-4-oxo-quinoline-3-carboxylic acid] | 2 (2=21-40%) | – | 1 (1=0-20%) | 1 (1=0-20%) | 1 (1=0-20%) | 4 (4=61-80%) | 2 (2=21-40%) | 0 | 1 (1=0-20%) | 0 |
